{"source": "patent US10285979B2", "about": "“Breast cancer therapeutic agent containing 5′-hydroxy-5-nitro-indirubin-3′-oxime as active ingredient” (ANYGEN CO., LTD., priority 2016, dated 2019)", "key": {"[1]": {"system": "triple negative cell lines", "details": "7 of 10 types of triple negative cell lines"}, "SF-268": {"system": "SF-268", "details": "10 μM; CNS cancer cell line SF-268", "source_text": "(§1) If the growth percent is 0%, it means that no further growth of cancer cells occurs, which is an ideal case."}, "DU-145": {"system": "DU-145", "details": "10 μM; prostate cancer cell line DU-145", "source_text": "as §1"}, "TK-10": {"system": "TK-10", "details": "10 μM; renal cell carcinoma cell line TK-10", "source_text": "as §1"}, "NCI-H460": {"system": "NCI-H460", "details": "10 μM; non-small cell lung cancer cell line NCI-H460", "source_text": "as §1"}, "[2]": {"system": "LDH (Lactate dehydrogenase)", "source_text": "Further, we have analyzed the secretion of LDH (Lactate dehydrogenase) enzyme to media as a representative necrosis biomarker."}, "[3]": {"system": "MDA-MB-231 triple negative breast cancer cells", "source_text": "After implanting MDA-MB-231 triple negative breast cancer cells to the nude mouse, the tumor has been grown to the 200 mm^3 volume.\nThe tumor volume and shape in the nude mouse have been observed for 24 days."}, "[4]": {"system": "TAMR-MCF-7 tamoxifen resistant breast cancer cells", "experiment": "TAMR-MCF-7 tamoxifen resistant breast cancer xenografted model, intraperitoneal"}, "[5]": {"system": "MDA-MB-231 breast cancer cell line", "details": "flow cytometry", "source_text": "(§2) Further, we have investigated the cell cycles of MDA-MB-231 breast cancer cell line through Flow cytometry analysis."}, "cyclin B1 expression": {"system": "cyclin B1 expression", "details": "western blot; G2/M phase", "source_text": "as §2"}, "[6]": {"system": "Imatinib-resistant K562 cells", "details": "in vitro and in vivo systems; cited from earlier work"}, "cancer cell": {"system": "cancer cell", "details": "DAPI staining", "source_text": "Further, we have examined the apoptotic body stained with DAPI using a fluorescence microscope to investigate the induction of apoptosis by AGM-130."}}, "note": "Where two headings read alike, the source gives them in different places.", "data": [{"smiles": "O=C1Nc2ccc([N+](=O)[O-])cc2C1=C1Nc2ccc(O)cc2C1=NO", "note": "[AGM-130, (2′Z 3′E)-5′-hydroxy-5-nitro indirubin oxime]", "values": [{"measurement": "IC50", "setting": "[1]", "result": "< 1000", "unit": "nM"}, {"measurement": "Growth percent", "setting": "SF-268", "result": 6.50, "unit": "%"}, {"measurement": "Growth percent", "setting": "DU-145", "result": 6.72, "unit": "%"}, {"measurement": "Growth percent", "setting": "TK-10", "result": 49.89, "unit": "%"}, {"measurement": "Growth percent", "setting": "NCI-H460", "result": "−28.47", "unit": "%"}, {"measurement": "apoptosis and necrosis (LDH secretion)", "setting": "[2]", "result": "apoptosis and necrosis have been induced at the same time"}, {"measurement": "tumor volume reduction compared to control group", "setting": "[3]; 3 mg/kg intravenously", "result": "about 31%"}, {"measurement": "volume of tumor", "setting": "[3]; 3 mg/kg intravenously once a week, day 0", "result": "341.5 ± 14.4"}, {"measurement": "volume of tumor", "setting": "[3]; 3 mg/kg intravenously once a week, day 3", "result": "474.6 ± 26.4"}, {"measurement": "volume of tumor", "setting": "[3]; 3 mg/kg intravenously once a week, day 6", "result": "602.5 ± 44.1"}, {"measurement": "volume of tumor", "setting": "[3]; 3 mg/kg intravenously once a week, day 9", "result": "693.1 ± 61.0"}, {"measurement": "volume of tumor", "setting": "[3]; 3 mg/kg intravenously once a week, day 12", "result": "838.0 ± 79.9"}, {"measurement": "volume of tumor", "setting": "[3]; 3 mg/kg intravenously once a week, day 15", "result": "996.9 ± 79.9"}, {"measurement": "volume of tumor", "setting": "[3]; 3 mg/kg intravenously once a week, day 18", "result": "1217.5 ± 81.8"}, {"measurement": "volume of tumor", "setting": "[3]; 3 mg/kg intravenously once a week, day 21", "result": "1398.0 ± 78.1"}, {"measurement": "volume of tumor", "setting": "[3]; 3 mg/kg intravenously once a week, day 24", "result": "1871.4 ± 175.5"}, {"measurement": "tumor volume reduction compared to control group", "setting": "[3]; 7 mg/kg intravenously", "result": "about 47%"}, {"measurement": "volume of tumor", "setting": "[3]; 7 mg/kg intravenously once a week, day 0", "result": "355.4 ± 10.7"}, {"measurement": "volume of tumor", "setting": "[3]; 7 mg/kg intravenously once a week, day 3", "result": "451.9 ± 10.2"}, {"measurement": "volume of tumor", "setting": "[3]; 7 mg/kg intravenously once a week, day 6", "result": "543.4 ± 10.9"}, {"measurement": "volume of tumor", "setting": "[3]; 7 mg/kg intravenously once a week, day 9", "result": "615.5 ± 19.0"}, {"measurement": "volume of tumor", "setting": "[3]; 7 mg/kg intravenously once a week, day 12", "result": "651.0 ± 47.1"}, {"measurement": "volume of tumor", "setting": "[3]; 7 mg/kg intravenously once a week, day 15", "result": "677.9 ± 46.7"}, {"measurement": "volume of tumor", "setting": "[3]; 7 mg/kg intravenously once a week, day 18", "result": "899.6 ± 59.6"}, {"measurement": "volume of tumor", "setting": "[3]; 7 mg/kg intravenously once a week, day 21", "result": "1108.9 ± 88.1"}, {"measurement": "volume of tumor", "setting": "[3]; 7 mg/kg intravenously once a week, day 24", "result": "1436.1 ± 84.8"}, {"measurement": "tumor volume reduction compared to control group", "setting": "[3]; 14 mg/kg intravenously", "result": "about 61%"}, {"measurement": "volume of tumor", "setting": "[3]; 14 mg/kg intravenously once a week, day 0", "result": "342.1 ± 20.7"}, {"measurement": "volume of tumor", "setting": "[3]; 14 mg/kg intravenously once a week, day 3", "result": "408.5 ± 10.3"}, {"measurement": "volume of tumor", "setting": "[3]; 14 mg/kg intravenously once a week, day 6", "result": "470.8 ± 20.4"}, {"measurement": "volume of tumor", "setting": "[3]; 14 mg/kg intravenously once a week, day 9", "result": "525.4 ± 35.6"}, {"measurement": "volume of tumor", "setting": "[3]; 14 mg/kg intravenously once a week, day 12", "result": "535.3 ± 39.0"}, {"measurement": "volume of tumor", "setting": "[3]; 14 mg/kg intravenously once a week, day 15", "result": "581.5 ± 44.8"}, {"measurement": "volume of tumor", "setting": "[3]; 14 mg/kg intravenously once a week, day 18", "result": "696.1 ± 54.6"}, {"measurement": "volume of tumor", "setting": "[3]; 14 mg/kg intravenously once a week, day 21", "result": "831.0 ± 75.1"}, {"measurement": "volume of tumor", "setting": "[3]; 14 mg/kg intravenously once a week, day 24", "result": "1064.3 ± 39.8"}, {"measurement": "weight of tumor", "setting": "[3]; intravenously, FIG. 6", "result": "dose-dependently reduced"}, {"measurement": "reduction of tumor volume", "setting": "[4]; 10 mg/kg and 40 mg/kg, FIG. 8", "result": "significantly observed"}, {"measurement": "tumor volume reduction compared to control group", "setting": "[4]; 10 mg/kg intraperitoneally twice a week", "result": "about 54%"}, {"measurement": "tumor volume reduction compared to control group", "setting": "[4]; 40 mg/kg intraperitoneally twice a week", "result": "about 45%"}, {"measurement": "weight of mouse compared to control group", "setting": "[4]; 10/40 mg/kg", "result": "changed significantly"}, {"measurement": "cell cycle phases", "setting": "[5]", "result": "decreased G1 phase and increased G2/M phase"}, {"measurement": "cyclin B1 expression", "setting": "cyclin B1 expression", "result": "remarkably reduced"}, {"measurement": "viability of cells", "setting": "[6]", "result": "efficiently decreases the viability"}, {"measurement": "induction of apoptosis", "setting": "cancer cell", "result": "mitochondria-dependent apoptosis"}]}]}
